# Results: patent US20250324971A1, “HERBICIDAL DERIVATIVES” (SYNGENTA CROP PROTECTION AG, priority 2022, published 2025)
# Experiments:
# Assay type in all cases: in vivo
# [1] = test system: Setaria faberi (SETFA); assay: Pre-Emergence Test (herbicidal, glasshouse pots); settings: evaluated after 13 days, five-point scale
# [2] = test system: Amaranthus retoflexus (AMARE); assay: Pre-Emergence Test (herbicidal, glasshouse pots); settings: evaluated after 13 days, five-point scale
# [3] = test system: Amaranthus palmeri (AMAPA); assay: Pre-Emergence Test (herbicidal, glasshouse pots); settings: evaluated after 13 days, five-point scale
# [4] = test system: Zea mays (ZEAMX); assay: Pre-Emergence Test (herbicidal, glasshouse pots); settings: evaluated after 13 days, five-point scale
# [5] = test system: Echinochloa crus-galli (ECHCG); assay: Pre-Emergence Test (herbicidal, glasshouse pots); settings: evaluated after 13 days, five-point scale
# [6] = test system: Ipomoea hederacea (IPOHE); assay: Pre-Emergence Test (herbicidal, glasshouse pots); settings: evaluated after 13 days, five-point scale
# [7] = test system: Amaranthus palmeri (AMAPA); assay: Post-Emergence Test (herbicidal, glasshouse pots); settings: evaluated after 13 days
# Procedure, shortened: (§1)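 Percentage plant damage rated 13 days after spraying, binned 1 (0-20%) to 5 (81-100%). Application, in g/ha, used acetone/water (50:50) plus 0.5% Tween 20; pots kept under controlled glasshouse conditions (24/16 °C day/night, 14 h light, 65% humidity).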
# [8] = test system: Zea mays (ZEAMX); assay: Post-Emergence Test (herbicidal, glasshouse pots); settings: evaluated after 13 days
# Procedure, shortened: as §1
# [9] = test system: Amaranthus retoflexus (AMARE); assay: Post-Emergence Test (herbicidal, glasshouse pots); settings: evaluated after 13 days
# Procedure, shortened: as §1
# [10] = test system: Echinochloa crus-galli (ECHCG); assay: Post-Emergence Test (herbicidal, glasshouse pots); settings: evaluated after 13 days
# Procedure, shortened: as §1
# [11] = test system: Ipomoea hederacea (IPOHE); assay: Post-Emergence Test (herbicidal, glasshouse pots); settings: evaluated after 13 days
# Procedure, shortened: as §1
# [12] = test system: Setaria faberi (SETFA); assay: Post-Emergence Test (herbicidal, glasshouse pots); settings: evaluated after 13 days
# Procedure, shortened: as §1
smiles,measurement,setting,value
"CCn1c(OC2CC2)cc(=O)c(C(=O)O)c1-c1ccc(Cl)c(Cl)c1 [Compound 45, 6-(cyclopropoxy)-2-(3,4-dichlorophenyl)-1-ethyl-4-oxo-pyridine-3-carboxylic acid]","percentage damage caused to the plant, SETFA",[1]; rate 250 g/ha,1 (1=0-20%)
same,"percentage damage caused to the plant, AMARE",[2]; rate 250 g/ha,2 (2=21-40%)
same,"percentage damage caused to the plant, AMAPA",[3]; rate 250 g/ha,1 (1=0-20%)
same,"percentage damage caused to the plant, ZEAMX",[4]; rate 250 g/ha,0
same,"percentage damage caused to the plant, ECHCG",[5]; rate 250 g/ha,0
same,"percentage damage caused to the plant, IPHOE",[6]; rate 250 g/ha,0
same,Post-Emergence Test AMAPA percentage damage (five-point scale),[7]; rate 250 g/ha,2 (2=21-40%)
same,Post-Emergence Test ZEAMX percentage damage (five-point scale),[8]; rate 250 g/ha,1 (1=0-20%)
same,Post-Emergence Test AMARE percentage damage (five-point scale),[9]; rate 250 g/ha,1 (1=0-20%)
same,Post-Emergence Test ECHCG percentage damage (five-point scale),[10]; rate 250 g/ha,2 (2=21-40%)
same,Post-Emergence Test IPHOE percentage damage (five-point scale),[11]; rate 250 g/ha,3 (3=41-60%)
same,Post-Emergence Test SETFA percentage damage (five-point scale),[12]; rate 250 g/ha,3 (3=41-60%)
"CCn1c(Oc2cc(Cl)n(C)n2)cc(=O)c(C(=O)O)c1-c1ccc(Cl)c(Cl)c1 [Compound 60, 6-(5-chloro-1-methyl-pyrazol-3-yl)oxy-2-(3,4-dichlorophenyl)-1-ethyl-4-oxo-pyridine-3-carboxylic acid]","percentage damage caused to the plant, SETFA",[1]; rate 250 g/ha,3 (3=41-60%)
same,"percentage damage caused to the plant, AMARE",[2]; rate 250 g/ha,2 (2=21-40%)
same,"percentage damage caused to the plant, AMAPA",[3]; rate 250 g/ha,0
same,"percentage damage caused to the plant, ZEAMX",[4]; rate 250 g/ha,0
same,"percentage damage caused to the plant, ECHCG",[5]; rate 250 g/ha,1 (1=0-20%)
same,"percentage damage caused to the plant, IPHOE",[6]; rate 250 g/ha,4 (4=61-80%)
same,Post-Emergence Test AMAPA percentage damage (five-point scale),[7]; rate 250 g/ha,1 (1=0-20%)
same,Post-Emergence Test ZEAMX percentage damage (five-point scale),[8]; rate 250 g/ha,3 (3=41-60%)
same,Post-Emergence Test AMARE percentage damage (five-point scale),[9]; rate 250 g/ha,4 (4=61-80%)
same,Post-Emergence Test ECHCG percentage damage (five-point scale),[10]; rate 250 g/ha,1 (1=0-20%)
same,Post-Emergence Test IPHOE percentage damage (five-point scale),[11]; rate 250 g/ha,4 (4=61-80%)
same,Post-Emergence Test SETFA percentage damage (five-point scale),[12]; rate 250 g/ha,1 (1=0-20%)
"CCn1c(Oc2ccc(C)c(F)c2)cc(=O)c(C(=O)O)c1-c1ccc(Cl)c(Cl)c1 [Compound 41, 2-(3,4-dichlorophenyl)-1-ethyl-6-(3-fluoro-4-methyl-phenoxy)-4-oxo-pyridine-3-carboxylic acid]","percentage damage caused to the plant, SETFA",[1]; rate 250 g/ha,0
same,"percentage damage caused to the plant, AMARE",[2]; rate 250 g/ha,1 (1=0-20%)
same,"percentage damage caused to the plant, AMAPA",[3]; rate 250 g/ha,0
same,"percentage damage caused to the plant, ZEAMX",[4]; rate 250 g/ha,0
same,"percentage damage caused to the plant, ECHCG",[5]; rate 250 g/ha,0
same,"percentage damage caused to the plant, IPHOE",[6]; rate 250 g/ha,2 (2=21-40%)
same,Post-Emergence Test AMAPA percentage damage (five-point scale),[7]; rate 250 g/ha,2 (2=21-40%)
same,Post-Emergence Test ZEAMX percentage damage (five-point scale),[8]; rate 250 g/ha,0
same,Post-Emergence Test AMARE percentage damage (five-point scale),[9]; rate 250 g/ha,2 (2=21-40%)
same,Post-Emergence Test ECHCG percentage damage (five-point scale),[10]; rate 250 g/ha,1 (1=0-20%)
same,Post-Emergence Test IPHOE percentage damage (five-point scale),[11]; rate 250 g/ha,3 (3=41-60%)
same,Post-Emergence Test SETFA percentage damage (five-point scale),[12]; rate 250 g/ha,1 (1=0-20%)
"CCn1c(Oc2ccc(C)c(F)c2)cc(=O)c(C(=O)O)c1-c1ccc(C#N)c(Cl)c1 [Compound 73, 2-(3-chloro-4-cyano-phenyl)-1-ethyl-6-(3-fluoro-4-methyl-phenoxy)-4-oxo-pyridine-3-carboxylic acid]","percentage damage caused to the plant, SETFA",[1]; rate 250 g/ha,5 (5=81-100%)
same,"percentage damage caused to the plant, AMARE",[2]; rate 250 g/ha,1 (1=0-20%)
same,"percentage damage caused to the plant, AMAPA",[3]; rate 250 g/ha,1 (1=0-20%)
same,"percentage damage caused to the plant, ZEAMX",[4]; rate 250 g/ha,2 (2=21-40%)
same,"percentage damage caused to the plant, ECHCG",[5]; rate 250 g/ha,4 (4=61-80%)
same,"percentage damage caused to the plant, IPHOE",[6]; rate 250 g/ha,4 (4=61-80%)
same,Post-Emergence Test AMAPA percentage damage (five-point scale),[7]; rate 250 g/ha,1 (1=0-20%)
same,Post-Emergence Test ZEAMX percentage damage (five-point scale),[8]; rate 250 g/ha,4 (4=61-80%)
same,Post-Emergence Test AMARE percentage damage (five-point scale),[9]; rate 250 g/ha,1 (1=0-20%)
same,Post-Emergence Test ECHCG percentage damage (five-point scale),[10]; rate 250 g/ha,4 (4=61-80%)
same,Post-Emergence Test IPHOE percentage damage (five-point scale),[11]; rate 250 g/ha,4 (4=61-80%)
same,Post-Emergence Test SETFA percentage damage (five-point scale),[12]; rate 250 g/ha,3 (3=41-60%)
"CCn1c(Oc2ccc(C(F)(F)F)cc2)cc(=O)c(C(=O)O)c1-c1ccc(Cl)c(Cl)c1 [Compound 27, 2-(3,4-dichlorophenyl)-1-ethyl-4-oxo-6-[4-(trifluoromethyl)phenoxy]pyridine-3-carboxylic acid]","percentage damage caused to the plant, SETFA",[1]; rate 250 g/ha,4 (4=61-80%)
same,"percentage damage caused to the plant, AMARE",[2]; rate 250 g/ha,1 (1=0-20%)
same,"percentage damage caused to the plant, AMAPA",[3]; rate 250 g/ha,1 (1=0-20%)
same,"percentage damage caused to the plant, ZEAMX",[4]; rate 250 g/ha,0
same,"percentage damage caused to the plant, ECHCG",[5]; rate 250 g/ha,1 (1=0-20%)
same,"percentage damage caused to the plant, IPHOE",[6]; rate 250 g/ha,0
same,Post-Emergence Test AMAPA percentage damage (five-point scale),[7]; rate 250 g/ha,4 (4=61-80%)
same,Post-Emergence Test ZEAMX percentage damage (five-point scale),[8]; rate 250 g/ha,2 (2=21-40%)
same,Post-Emergence Test AMARE percentage damage (five-point scale),[9]; rate 250 g/ha,4 (4=61-80%)
same,Post-Emergence Test ECHCG percentage damage (five-point scale),[10]; rate 250 g/ha,4 (4=61-80%)
same,Post-Emergence Test IPHOE percentage damage (five-point scale),[11]; rate 250 g/ha,4 (4=61-80%)
same,Post-Emergence Test SETFA percentage damage (five-point scale),[12]; rate 250 g/ha,5 (5=81-100%)
"CCn1c(Oc2cccc(Cl)c2)cc(=O)c(C(=O)O)c1-c1ccc(Cl)c(Cl)c1 [Compound 2, 6-(3-chlorophenoxy)-2-(3,4-dichlorophenyl)-1-ethyl-4-oxo-pyridine-3-carboxylic acid]","percentage damage caused to the plant, SETFA",[1]; rate 1000 g/ha,5 (5=81-100%)
same,"percentage damage caused to the plant, AMARE",[2]; rate 1000 g/ha,2 (2=21-40%)
same,"percentage damage caused to the plant, AMAPA",[3]; rate 1000 g/ha,1 (1=0-20%)
same,"percentage damage caused to the plant, ZEAMX",[4]; rate 1000 g/ha,2 (2=21-40%)
same,"percentage damage caused to the plant, ECHCG",[5]; rate 1000 g/ha,4 (4=61-80%)
same,"percentage damage caused to the plant, IPHOE",[6]; rate 1000 g/ha,4 (4=61-80%)
same,Post-Emergence Test AMAPA percentage damage (five-point scale),[7]; rate 1000 g/ha,4 (4=61-80%)
same,Post-Emergence Test ZEAMX percentage damage (five-point scale),[8]; rate 1000 g/ha,3 (3=41-60%)
same,Post-Emergence Test AMARE percentage damage (five-point scale),[9]; rate 1000 g/ha,4 (4=61-80%)
same,Post-Emergence Test ECHCG percentage damage (five-point scale),[10]; rate 1000 g/ha,4 (4=61-80%)
same,Post-Emergence Test IPHOE percentage damage (five-point scale),[11]; rate 1000 g/ha,3 (3=41-60%)
same,Post-Emergence Test SETFA percentage damage (five-point scale),[12]; rate 1000 g/ha,4 (4=61-80%)
CCn1c(Oc2ccc(F)c(F)c2)cc(=O)c(C(=O)O)c1-c1ccc(C#N)c(Cl)c1 [Compound 76],"percentage damage caused to the plant, SETFA",[1]; rate 250 g/ha,5 (5=81-100%)
same,"percentage damage caused to the plant, AMARE",[2]; rate 250 g/ha,2 (2=21-40%)
same,"percentage damage caused to the plant, AMAPA",[3]; rate 250 g/ha,2 (2=21-40%)
same,"percentage damage caused to the plant, ZEAMX",[4]; rate 250 g/ha,5 (5=81-100%)
same,"percentage damage caused to the plant, ECHCG",[5]; rate 250 g/ha,4 (4=61-80%)
same,"percentage damage caused to the plant, IPHOE",[6]; rate 250 g/ha,1 (1=0-20%)
same,Post-Emergence Test AMAPA percentage damage (five-point scale),[7]; rate 250 g/ha,3 (3=41-60%)
same,Post-Emergence Test ZEAMX percentage damage (five-point scale),[8]; rate 250 g/ha,4 (4=61-80%)
same,Post-Emergence Test AMARE percentage damage (five-point scale),[9]; rate 250 g/ha,4 (4=61-80%)
same,Post-Emergence Test ECHCG percentage damage (five-point scale),[10]; rate 250 g/ha,3 (3=41-60%)
same,Post-Emergence Test IPHOE percentage damage (five-point scale),[11]; rate 250 g/ha,4 (4=61-80%)
same,Post-Emergence Test SETFA percentage damage (five-point scale),[12]; rate 250 g/ha,4 (4=61-80%)
"CCn1c(Oc2ccn(C3CC3)n2)cc(=O)c(C(=O)O)c1-c1ccc(Cl)c(Cl)c1 [Compound 58, 6-(1-cyclopropylpyrazol-3-yl)oxy-2-(3,4-dichlorophenyl)-1-ethyl-4-oxo-pyridine-3-carboxylic acid]","percentage damage caused to the plant, SETFA",[1]; rate 250 g/ha,5 (5=81-100%)
same,"percentage damage caused to the plant, AMARE",[2]; rate 250 g/ha,4 (4=61-80%)
same,"percentage damage caused to the plant, AMAPA",[3]; rate 250 g/ha,3 (3=41-60%)
same,"percentage damage caused to the plant, ZEAMX",[4]; rate 250 g/ha,5 (5=81-100%)
same,"percentage damage caused to the plant, ECHCG",[5]; rate 250 g/ha,5 (5=81-100%)
same,"percentage damage caused to the plant, IPHOE",[6]; rate 250 g/ha,5 (5=81-100%)
same,Post-Emergence Test AMAPA percentage damage (five-point scale),[7]; rate 250 g/ha,3 (3=41-60%)
same,Post-Emergence Test ZEAMX percentage damage (five-point scale),[8]; rate 250 g/ha,4 (4=61-80%)
same,Post-Emergence Test AMARE percentage damage (five-point scale),[9]; rate 250 g/ha,4 (4=61-80%)
same,Post-Emergence Test ECHCG percentage damage (five-point scale),[10]; rate 250 g/ha,3 (3=41-60%)
same,Post-Emergence Test IPHOE percentage damage (five-point scale),[11]; rate 250 g/ha,4 (4=61-80%)
same,Post-Emergence Test SETFA percentage damage (five-point scale),[12]; rate 250 g/ha,3 (3=41-60%)
